Experimental findings from the OligoGym collection are described below.

Oligonucleotides are given in HELM: sugar(base)linkage, 5' to 3'; d 2'-deoxyribose, r ribose, m 2'-O-methylribose, p phosphate. ss, as = sense and antisense strand

The target in this data set is Cacnb1 (rat). Nature of the data set: reporter assay of Huesken 2005. The conditions noted are these: siRNA. In general terms: In a reporter assay the amount or activity of a reporter protein is the signal.
Also: test concentration or dose not given here.

For “RNA1{r(C)p.r(G)p.r(U)p.r(C)p.r(A)p.r(G)p.r(A)p.r(C)p.r(U)p.r(C)p.r(C)p.r(G)p.r(A)p.r(C)p.r(G)p.r(U)p.r(G)p.r(U)p.r(C)p.d(T)p.d(T)}|RNA2{r(G)p.r(A)p.r(C)p.r(A)p.r(C)p.r(G)p.r(U)p.r(C)p.r(G)p.r(G)p.r(A)p.r(G)p.r(U)p.r(C)p.r(U)p.r(G)p.r(A)p.r(C)p.r(G)p.d(G)p.d(C)}$$$RNA1{StrandType:ss}|RNA2{StrandType:as}$”, the normalised inhibition (eCFP-eYFP dual reporter) was 77%.

“RNA1{r(C)p.r(C)p.r(U)p.r(G)p.r(G)p.r(A)p.r(C)p.r(G)p.r(A)p.r(G)p.r(A)p.r(A)p.r(C)p.r(C)p.r(A)p.r(A)p.r(U)p.r(U)p.r(G)p.d(T)p.d(T)}|RNA2{r(C)p.r(A)p.r(A)p.r(U)p.r(U)p.r(G)p.r(G)p.r(U)p.r(U)p.r(C)p.r(U)p.r(C)p.r(G)p.r(U)p.r(C)p.r(C)p.r(A)p.r(G)p.r(G)p.d(A)p.d(T)}$$$RNA1{StrandType:ss}|RNA2{StrandType:as}$” yielded a normalised inhibition (eCFP-eYFP dual reporter) of 80.2%. For the substance “RNA1{r(A)p.r(G)p.r(A)p.r(A)p.r(U)p.r(G)p.r(A)p.r(G)p.r(C)p.r(U)p.r(G)p.r(G)p.r(A)p.r(G)p.r(G)p.r(G)p.r(C)p.r(U)p.r(G)p.d(T)p.d(T)}|RNA2{r(C)p.r(A)p.r(G)p.r(C)p.r(C)p.r(C)p.r(U)p.r(C)p.r(C)p.r(A)p.r(G)p.r(C)p.r(U)p.r(C)p.r(A)p.r(U)p.r(U)p.r(C)p.r(U)p.d(T)p.d(A)}$$$RNA1{StrandType:ss}|RNA2{StrandType:as}$”, the normalised inhibition (eCFP-eYFP dual reporter) worked out at 75.3%.

As for “RNA1{r(U)p.r(A)p.r(C)p.r(A)p.r(C)p.r(G)p.r(G)p.r(A)p.r(G)p.r(C)p.r(C)p.r(A)p.r(G)p.r(G)p.r(A)p.r(G)p.r(A)p.r(C)p.r(U)p.d(T)p.d(T)}|RNA2{r(A)p.r(G)p.r(U)p.r(C)p.r(U)p.r(C)p.r(C)p.r(U)p.r(G)p.r(G)p.r(C)p.r(U)p.r(C)p.r(C)p.r(G)p.r(U)p.r(G)p.r(U)p.r(A)p.d(G)p.d(A)}$$$RNA1{StrandType:ss}|RNA2{StrandType:as}$”, the normalised inhibition (eCFP-eYFP dual reporter) was determined as 54.9%. “RNA1{r(A)p.r(A)p.r(C)p.r(C)p.r(G)p.r(C)p.r(C)p.r(U)p.r(C)p.r(A)p.r(G)p.r(C)p.r(U)p.r(C)p.r(C)p.r(A)p.r(G)p.r(C)p.r(A)p.d(T)p.d(T)}|RNA2{r(U)p.r(G)p.r(C)p.r(U)p.r(G)p.r(G)p.r(A)p.r(G)p.r(C)p.r(U)p.r(G)p.r(A)p.r(G)p.r(G)p.r(C)p.r(G)p.r(G)p.r(U)p.r(U)p.d(T)p.d(T)}$$$RNA1{StrandType:ss}|RNA2{StrandType:as}$” came in with a normalised inhibition (eCFP-eYFP dual reporter) of 46.2%. As for “RNA1{r(C)p.r(U)p.r(U)p.r(G)p.r(G)p.r(A)p.r(A)p.r(G)p.r(C)p.r(C)p.r(U)p.r(A)p.r(C)p.r(U)p.r(G)p.r(G)p.r(A)p.r(A)p.r(G)p.d(T)p.d(T)}|RNA2{r(C)p.r(U)p.r(U)p.r(C)p.r(C)p.r(A)p.r(G)p.r(U)p.r(A)p.r(G)p.r(G)p.r(C)p.r(U)p.r(U)p.r(C)p.r(C)p.r(A)p.r(A)p.r(G)p.d(T)p.d(A)}$$$RNA1{StrandType:ss}|RNA2{StrandType:as}$”, the figure is 60.9%. “RNA1{r(A)p.r(G)p.r(C)p.r(A)p.r(A)p.r(C)p.r(C)p.r(A)p.r(C)p.r(C)p.r(C)p.r(A)p.r(C)p.r(C)p.r(U)p.r(G)p.r(G)p.r(C)p.r(C)p.d(T)p.d(T)}|RNA2{r(G)p.r(G)p.r(C)p.r(C)p.r(A)p.r(G)p.r(G)p.r(U)p.r(G)p.r(G)p.r(G)p.r(U)p.r(G)p.r(G)p.r(U)p.r(U)p.r(G)p.r(C)p.r(U)p.d(G)p.d(G)}$$$RNA1{StrandType:ss}|RNA2{StrandType:as}$” came in with a normalised inhibition (eCFP-eYFP dual reporter) of 31.6%. For the substance “RNA1{r(G)p.r(U)p.r(A)p.r(C)p.r(U)p.r(G)p.r(C)p.r(A)p.r(G)p.r(A)p.r(G)p.r(G)p.r(C)p.r(U)p.r(C)p.r(A)p.r(U)p.r(C)p.r(A)p.d(T)p.d(T)}|RNA2{r(U)p.r(G)p.r(A)p.r(U)p.r(G)p.r(A)p.r(G)p.r(C)p.r(C)p.r(U)p.r(C)p.r(U)p.r(G)p.r(C)p.r(A)p.r(G)p.r(U)p.r(A)p.r(C)p.d(C)p.d(T)}$$$RNA1{StrandType:ss}|RNA2{StrandType:as}$”, the normalised inhibition (eCFP-eYFP dual reporter) was 73.6%. In turn, “RNA1{r(C)p.r(U)p.r(G)p.r(G)p.r(C)p.r(U)p.r(G)p.r(A)p.r(G)p.r(G)p.r(U)p.r(A)p.r(C)p.r(A)p.r(G)p.r(A)p.r(G)p.r(U)p.r(G)p.d(T)p.d(T)}|RNA2{r(C)p.r(A)p.r(C)p.r(U)p.r(C)p.r(U)p.r(G)p.r(U)p.r(A)p.r(C)p.r(C)p.r(U)p.r(C)p.r(A)p.r(G)p.r(C)p.r(C)p.r(A)p.r(G)p.d(G)p.d(C)}$$$RNA1{StrandType:ss}|RNA2{StrandType:as}$” gave a normalised inhibition (eCFP-eYFP dual reporter) of 34.8%. “RNA1{r(A)p.r(A)p.r(U)p.r(G)p.r(U)p.r(U)p.r(G)p.r(G)p.r(C)p.r(U)p.r(A)p.r(C)p.r(A)p.r(A)p.r(U)p.r(C)p.r(C)p.r(G)p.r(U)p.d(T)p.d(T)}|RNA2{r(A)p.r(C)p.r(G)p.r(G)p.r(A)p.r(U)p.r(U)p.r(G)p.r(U)p.r(A)p.r(G)p.r(C)p.r(C)p.r(A)p.r(A)p.r(C)p.r(A)p.r(U)p.r(U)p.d(T)p.d(G)}$$$RNA1{StrandType:ss}|RNA2{StrandType:as}$” displayed a normalised inhibition (eCFP-eYFP dual reporter) of 90.9%. As to “RNA1{r(G)p.r(U)p.r(G)p.r(C)p.r(G)p.r(G)p.r(A)p.r(G)p.r(G)p.r(G)p.r(U)p.r(G)p.r(G)p.r(U)p.r(G)p.r(G)p.r(G)p.r(C)p.r(C)p.d(T)p.d(T)}|RNA2{r(G)p.r(G)p.r(C)p.r(C)p.r(C)p.r(A)p.r(C)p.r(C)p.r(A)p.r(C)p.r(C)p.r(C)p.r(U)p.r(C)p.r(C)p.r(G)p.r(C)p.r(A)p.r(C)p.d(A)p.d(G)}$$$RNA1{StrandType:ss}|RNA2{StrandType:as}$”, the normalised inhibition (eCFP-eYFP dual reporter) stood at 52.4%. With “RNA1{r(G)p.r(A)p.r(A)p.r(C)p.r(C)p.r(G)p.r(C)p.r(A)p.r(C)p.r(C)p.r(A)p.r(U)p.r(G)p.r(G)p.r(C)p.r(U)p.r(A)p.r(C)p.r(C)p.d(T)p.d(T)}|RNA2{r(G)p.r(G)p.r(U)p.r(A)p.r(G)p.r(C)p.r(C)p.r(A)p.r(U)p.r(G)p.r(G)p.r(U)p.r(G)p.r(C)p.r(G)p.r(G)p.r(U)p.r(U)p.r(C)p.d(A)p.d(G)}$$$RNA1{StrandType:ss}|RNA2{StrandType:as}$”, the normalised inhibition (eCFP-eYFP dual reporter) turned out to be 49%. Regarding “RNA1{r(U)p.r(C)p.r(G)p.r(G)p.r(G)p.r(A)p.r(G)p.r(G)p.r(C)p.r(U)p.r(G)p.r(G)p.r(U)p.r(G)p.r(A)p.r(A)p.r(G)p.r(G)p.r(A)p.d(T)p.d(T)}|RNA2{r(U)p.r(C)p.r(C)p.r(U)p.r(U)p.r(C)p.r(A)p.r(C)p.r(C)p.r(A)p.r(G)p.r(C)p.r(C)p.r(U)p.r(C)p.r(C)p.r(C)p.r(G)p.r(A)p.d(T)p.d(C)}$$$RNA1{StrandType:ss}|RNA2{StrandType:as}$”, the normalised inhibition (eCFP-eYFP dual reporter) came to 73.7%. Regarding “RNA1{r(G)p.r(G)p.r(C)p.r(C)p.r(G)p.r(G)p.r(U)p.r(U)p.r(C)p.r(U)p.r(G)p.r(G)p.r(G)p.r(G)p.r(C)p.r(G)p.r(C)p.r(A)p.r(A)p.d(T)p.d(T)}|RNA2{r(U)p.r(U)p.r(G)p.r(C)p.r(G)p.r(C)p.r(C)p.r(C)p.r(C)p.r(A)p.r(G)p.r(A)p.r(A)p.r(C)p.r(C)p.r(G)p.r(G)p.r(C)p.r(C)p.d(C)p.d(A)}$$$RNA1{StrandType:ss}|RNA2{StrandType:as}$”, the normalised inhibition (eCFP-eYFP dual reporter) was 79.6%.

“RNA1{r(A)p.r(A)p.r(C)p.r(C)p.r(A)p.r(A)p.r(U)p.r(U)p.r(G)p.r(G)p.r(A)p.r(A)p.r(G)p.r(A)p.r(U)p.r(G)p.r(C)p.r(C)p.r(U)p.d(T)p.d(T)}|RNA2{r(A)p.r(G)p.r(G)p.r(C)p.r(A)p.r(U)p.r(C)p.r(U)p.r(U)p.r(C)p.r(C)p.r(A)p.r(A)p.r(U)p.r(U)p.r(G)p.r(G)p.r(U)p.r(U)p.d(C)p.d(T)}$$$RNA1{StrandType:ss}|RNA2{StrandType:as}$” yielded a normalised inhibition (eCFP-eYFP dual reporter) of 50%.
